Results from patent US10532082B2, “SOCS1-derived peptide for use in chronic complications of diabetes” (Fundació Hospital Universitari Vall d'Hebron-Institut de …, priority 2014, dated 2020).
Where no end group is shown, it is not given here.

How the values were obtained:
STAT1 = STAT1 activation in cytokine-stimulated macrophages (Western blot); format: cell-based, murine; conditions: pre-incubation 50-150 ug/mL (Mut 150 ug/mL), IFNγ and IL-6 stimulation
Procedure: (§1) RAW264.7 macrophages and vascular smooth muscle cells (VSMC) cultured in a medium with 10% fetal bovine serum were used. The cells were synchronized (24 hours without serum), pre-incubated for 90 minutes with different peptide concentrations (miS1 or the control thereof, 50-150 μg/mL) and stimulated with cytokines (IFNγ […]). STAT activation was analyzed by means of Western blot for phosphorylated STAT1/STAT3 isoforms. JAK/STAT pathway-dependent chemokine (CCL2) expression was determined by means of ELISA. Cell viability was analyzed by MTT colorimetric assay and macrophage migration was analyzed by chemotaxis assay.

STAT3 = STAT3 activation in cytokine-stimulated macrophages (Western blot); format: cell-based, murine; conditions: pre-incubation 50-150 ug/mL (Mut 150 ug/mL), IFNγ and IL-6 stimulation
Procedure: as §1

## Mut: non-functional mutated peptide, F substituted with A: SEQ ID NO 3 DTHARTARSHSDYRRI, bound to lysine-palmitate; control of the experiments (not fully specified (N-terminus)) [reference compound]
STAT1
  STAT1 activation (phosphorylation): did not cause any effect
STAT3
  STAT3 activation (phosphorylation): did not cause any effect
